Laboratory results as given in publication PMC9920808, “Impact of the Substitution Pattern at the Basic Center and Geometry of the Amine Fragment on 5-HT6 and D3R Affinity in the 1H-Pyrrolo[3,2-c]quinoline Series” (Molecules, 2023).
Counter-ions that a name gives are not always drawn. Like-named read-outs stand apart in the source and are kept apart here.

Experiments:
human 5-HT6R [1] = biological target: T1, human 5-HT6R (Homo sapiens, UniProt P50406); assay: [3H]-LSD radioligand binding assay at 5-HT6R in HEK293 cell membranes; settings: HEK293 cells with stable expression of human 5-HT6R, mean of at least three experiments (SEM ≤ 18%)
T1 construct: expressed in transfected cells
T1 sequence (P50406 whole entry): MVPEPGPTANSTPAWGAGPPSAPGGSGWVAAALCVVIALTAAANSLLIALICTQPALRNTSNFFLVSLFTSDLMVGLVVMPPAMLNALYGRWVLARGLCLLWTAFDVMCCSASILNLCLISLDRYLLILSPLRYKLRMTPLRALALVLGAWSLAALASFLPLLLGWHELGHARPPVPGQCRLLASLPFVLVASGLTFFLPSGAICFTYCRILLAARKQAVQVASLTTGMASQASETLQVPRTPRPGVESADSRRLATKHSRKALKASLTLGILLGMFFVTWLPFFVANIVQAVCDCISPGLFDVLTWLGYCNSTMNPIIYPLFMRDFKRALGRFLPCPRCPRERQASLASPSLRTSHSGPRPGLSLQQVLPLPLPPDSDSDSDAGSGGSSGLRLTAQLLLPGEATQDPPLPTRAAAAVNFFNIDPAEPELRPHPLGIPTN
Procedure: (§1) The biological evaluation was initiated by assessing the affinity of the compounds for 5-HT6R in the [^3H]-LSD radioligand binding assay. Experiments were performed in a stable HEK293 cell line expressing the human 5-HT6R [10]. […] Experiments were performed in Chinese hamster ovary (CHO) cells with the stable expression of human D3R (Eurofins, Celle-L’Evescault, France).
HEK293 cells with stable expression of human 5-HT6 receptors (prepared with the use of Lipofectamine 2000) were maintained at 37 °C in a humidified atmosphere with 5% CO2 and grown in Dulbecco’s modified Eagle medium containing 10% dialyzed fetal bovine serum and 500 μg/mL G418 sulfate. For membrane preparation, cells were sub-cultured in 150 cm^2 flasks, grown to 90% confluence, washed twice with phosphate buffered saline (PBS), prewarmed to 37 °C, and pelleted by centrifugation (200× g) in PBS containing 0.1 mM EDTA and 1 mM dithiothreitol. Prior to membrane preparation, pellets were stored at −80 °C.
The cell pellets were thawed and homogenized in 10 volumes of assay buffer using an Ultra Turrax tissue homogenizer(IKA, Warsaw, Poland), centrifuged twice at 35,000× g for 15 min at 4 °C, and incubated for 15 min at 37 °C between centrifugation rounds. The composition of the assay buffers was 50 mM Tris HCl, 0.5 mM EDTA, and 4 mM MgCl2. The assays were incubated in a total volume of 200 μL in 96-well microtiter plates for 1 h at 37 °C. The process of equilibration was terminated by rapid filtration through Unifilter plates with a 96-well cell harvester, and radioactivity retained on the filters was quantified on a Microbeta plate reader (PerkinElmer, Waltham, MA, USA). For displacement studies, the assay samples contained as radioligands (PerkinElmer, USA) 2 nM [^3H]-LSD (83.6 Ci/mmol). Nonspecific binding was defined with 10 μM methiothepine. Each compound was tested in triplicate at 7 concentrations (10^−10 to 10^−4 M). The inhibition constants (Ki) were calculated from the Cheng−Prusoff equation [30]. […]

D2R = settings: Figure 1; ref 25 (SB737050), ref 19 (I), ref 26 (PZ-1643), ref 27 (CPPQ); cited from earlier work
5-HT6R = settings: Figure 1; ref 25 (SB737050), ref 19 (I), ref 26 (PZ-1643), ref 27 (CPPQ); cited from earlier work
D3R = biological target: D3R; parameters: method as in earlier work; settings: Figure 1; ref 25 (SB737050), ref 19 (I), ref 26 (PZ-1643); cited from earlier work
human D3R [2] = biological target: T2, human D3R (Homo sapiens, UniProt P35462); parameters: method as in PMID 30896921; settings: data taken from ref 26, cited from earlier work
T2 sequence (P35462 whole entry): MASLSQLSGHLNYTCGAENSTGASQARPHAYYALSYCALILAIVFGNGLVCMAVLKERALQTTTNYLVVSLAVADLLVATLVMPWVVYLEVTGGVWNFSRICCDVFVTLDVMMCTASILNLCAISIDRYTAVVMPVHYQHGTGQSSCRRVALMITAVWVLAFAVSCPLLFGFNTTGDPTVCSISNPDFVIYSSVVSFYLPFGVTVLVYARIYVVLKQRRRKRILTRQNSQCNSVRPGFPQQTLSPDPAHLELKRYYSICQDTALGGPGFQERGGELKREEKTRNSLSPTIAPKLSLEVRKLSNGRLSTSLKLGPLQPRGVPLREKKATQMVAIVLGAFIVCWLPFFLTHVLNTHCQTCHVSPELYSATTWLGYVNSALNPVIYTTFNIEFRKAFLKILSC

human 5-HT6R [3] = biological target: T1, human 5-HT6R; parameters: method as in PMID 30896921; settings: HEK293 cells, data taken from ref 26; cited from earlier work
human D3R [4] = biological target: T2, human D3R; assay: D3R screening binding with [3H]-methylspiperone in CHO cells (Eurofins); settings: percentage displacement at 10^-6 M; CHO cells with stable expression of human D3R; read-out: %inh Binding to D3R @1μM
Procedure: as §1

human serotonin 5-HT6R = biological target: T3, human serotonin 5-HT6R (Homo sapiens, UniProt P50406); assay: cAMP cellular assay, inhibition of 5-CT-induced cAMP production in 1321N1 cells; type: cell-based; settings: 1321N1 cells expressing human 5-HT6R; cAMP production induced by 5-CT (1000 nM); read-out: Kb, antagonist properties at 5-HT6R
T3 construct: host or cells: 1321N1 (frozen recombinant cells)
T3 sequence (P50406 whole entry): as the sequence (P50406 whole entry) above
Procedure: The experiments were performed in 1321N1 cells expressing the human serotonin 5-HT6R.
The functional properties of compounds on 5-HT6R were evaluated using its ability to inhibit cAMP production induced by 5-CT (1000 nM), a 5-HT6R agonist. The compound was tested in triplicate at 8 concentrations (10^−11 to 10^−4 M). The level of adenylyl cyclase activity was measured using frozen recombinant 1321N1 cells expressing the human serotonin 5-HT6R (PerkinElmer). Total cAMP was measured using the LANCE cAMP detection kit (PerkinElmer), according to the manufacturer’s directions. For quantification of cAMP levels, cells (5 μL) were incubated with a mixture of compounds (5 μL) for 30 min at room temperature in 384-well white opaque microtiter plates. After incubation, the reaction was stopped, and cells were lysed by the addition of 10 μL of working solution (5 μL of Eu-cAMP and 5 μL of ULight-anti-cAMP). The assay plate was incubated for 1 h at room temperature. Time-resolved fluorescence resonance energy transfer (TR-FRET) was detected by an Infinite M1000 Pro (Tecan, Männedorf, Switzerland) using instrument settings from LANCE cAMP detection kit manual(PerkinElmer, Waltham, MA, USA).

human 5-HT6R [5] = biological target: T1, human 5-HT6R; assay: 5-HT6R constitutive activity at Gs signaling in NG108-15 cells (CAMYEL BRET cAMP sensor); type: cell-based; settings: NG108-15 cells transiently expressing 5-HT6R; Figure 3
Procedure: The experiments were performed in 1321N1 cells expressing the human serotonin 5-HT6R. […] Neuroblastoma cells (NG108-15) were grown in DMEM (Dulbecco’s modified Eagle’s medium) supplemented with 10% heat-inactivated fetal bovine serum, 2% HAT (hypoxanthine/aminopterin/thymidine, Life technologies), glutamine, and antibiotics at 37 °C under 5% of CO2. cAMP measurement was performed in cells transiently transfected with a construct expressing the CAMYEL bioluminescence resonance energy transfer (BRET) sensor for cAMP [44] (3 μg DNA/million cells) alone or in combination with a plasmid encoding the human 5-HT6R (0.5 μg DNA/million cells). Transfection of the NG108-15 cells was conducted in suspension using Lipofectamine 2000, according to the manufacturer’s protocol. Plasmids and lipofectamine were diluted in Opti-MEM Reduced Serum Media (Gibco) and incubated at room temperature for 20 min before being added to the cells. […] Coelanterazine H (Molecular Probes) was added in each well at a final concentration of 5 μM and incubated at room temperature for 5 min before measuring BRET in a Mithras LB 940 plate reader (Berthold Technologies, Bad Wildbad, Germany). The decrease in CAMYEL BRET induced by the coexpression of the probe with the 5-HT6R as compared to the BRET measured in cells expressing the probe alone was used as an index of the 5-HT6R constitutive activity.

O=S(=O)(c1cccc(Cl)c1)n1ccc2c(NC[C@H]3CCCN3CCO)nc3ccccc3c21 [Compound 19, (R)-2-(2-(((1-((3-chlorophenyl)sulfonyl)-1H-pyrrolo[3,2-c]quinolin-4 yl)amino)methyl)-pyrrolidin-1-yl)ethan-1-ol hydrochloride]
Ki (human 5-HT6R [1]): 58 nM

O=S(=O)(c1cccc(Cl)c1)n1ccc2c(N[C@H]3CCNC3)nc3ccccc3c21 [CPPQ, (S)-1-((3-chlorophenyl)sulfonyl)-N-(pyrrolidin-3-yl)-1H-pyrrolo[3,2-c]quinolin-4-amine]
pKi D2R (D2R): 6.0

CN1Cc2c(ccc3c2ccn3S(=O)(=O)c2c(Cl)nc3sccn23)CC1CCO (centres unmarked) [I]
pKi D2R (D2R): 7.4 | pKi 5-HT6R (5-HT6R): 8.7 | pKi D3R (D3R): 9.0

COc1cc2c(cc1NS(=O)(=O)c1ccc(-c3cccs3)cc1)CCN(C)CC2 [SB737050]
pKi D2R (D2R): 7.7 | pKi 5-HT6R (5-HT6R): 9.0 | pKi D3R (D3R): 7.9

CC(C)CN1CC[C@H](Nc2nc3ccccc3c3c2ccn3S(=O)(=O)c2cccc(Cl)c2)C1 [PZ-1643]
%inh Binding to D3R @1μM (human D3R [2]; percentage displacement at 10^-6 M): 98% | Ki (human D3R [2]; printed in parentheses after %inh, read-out: D3R affinity value in parentheses (Ki)): 7 nM | pKi D2R (D2R): 6.5 | pKi 5-HT6R (5-HT6R): 7.6 | Ki (human 5-HT6R [3]): 27 nM | pKi D3R (D3R): 8.2

CCN1CC[C@@H](CNc2nc3ccccc3c3c2ccn3S(=O)(=O)c2cccc(Cl)c2)C1 [Compound 16, (S)-1-((3-chlorophenyl)sulfonyl)-N-((1-ethylpyrrolidin-3-yl)methyl)-1H-pyrrolo[3,2-c]quinolin-4-amine hydrochloride]
Ki (human 5-HT6R [1]): 64 nM

O=S(=O)(c1cccc(Cl)c1)n1ccc2c(N[C@H]3CCN(CCC(F)(F)F)C3)nc3ccccc3c21 [Compound 12, (S)-1-((3-chlorophenyl)sulfonyl)-N-(1-(3,3,3-trifluoropropyl)pyrrolidin-3-yl)-1H-pyrrolo[3,2-c]quinolin-4-amine]
Ki (human 5-HT6R [1]): 556 nM

O=S(=O)(c1cccc(Cl)c1)n1ccc2c(N[C@H]3CCN(CCO)C3)nc3ccccc3c21 [Compound 10, (S)-2-(3-((1-((3-chlorophenyl)sulfonyl)-1H-pyrrolo[3,2-c]quinolin-4-yl)amino)pyrrolidin-1-yl)ethan-1-ol]
Ki (human 5-HT6R [1]): 84 nM

C[C@H](O)CN1CC[C@H](Nc2nc3ccccc3c3c2ccn3S(=O)(=O)c2cccc(Cl)c2)C1 [Compound 8, (S)-1-((S)-3-((1-((3-chlorophenyl)sulfonyl)-1H-pyrrolo[3,2-c]quinolin-4-yl)amino)pyrrolidin-1-yl)propan-2-ol]
Ki (human 5-HT6R [1]): 11 nM

C[C@@H](O)CN1CC[C@H](Nc2nc3ccccc3c3c2ccn3S(=O)(=O)c2cccc(Cl)c2)C1 [Compound 9, (R)-1-((S)-3-((1-((3-chlorophenyl)sulfonyl)-1H-pyrrolo[3,2-c]quinolin-4-yl)amino)pyrrolidin-1-yl)propan-2-ol]
inhibition at 1 µM (human D3R [4]): 54% | Ki (human 5-HT6R [1]): 6 nM

COCCCN1CC[C@H](Nc2nc3ccccc3c3c2ccn3S(=O)(=O)c2cccc(Cl)c2)C1 [Compound 11, (S)-1-((3-chlorophenyl)sulfonyl)-N-(1-(3-methoxypropyl)pyrrolidin-3-yl)-1H-pyrrolo[3,2-c]quinolin-4-amine]
inhibition at 1 µM (human D3R [4]): 25% | Ki (human 5-HT6R [1]): 17 nM

O=S(=O)(c1cccc(Cl)c1)n1ccc2c(NC[C@@H]3CCCN3CCO)nc3ccccc3c21 [Compound 20, (S)-2-(2-(((1-((3-chlorophenyl)sulfonyl)-1H-pyrrolo[3,2-c]quinolin-4 yl)amino)methyl)pyrrolidin-1-yl)ethan-1-ol hydrochloride]
Ki (human 5-HT6R [1]): 77 nM

CC(C)CN1CCC[C@@H]1CNc1nc2ccccc2c2c1ccn2S(=O)(=O)c1cccc(Cl)c1.Cl [Compound 17, (R)-1-((3-chlorophenyl)sulfonyl)-N-((1-isobutylpyrrolidin-2-yl)methyl)-1H-pyrrolo[3,2-c]quinolin-4-amine hydrochloride]
inhibition at 1 µM (human D3R [4]): 57% | Ki (human 5-HT6R [1]): 27 nM | Kb (human serotonin 5-HT6R): 3.8 nM | Impact on 5-HT6R-operated Gs signaling (constitutive activity) (human 5-HT6R [5]): neutral antagonist

CCN1CC[C@H](CNc2nc3ccccc3c3c2ccn3S(=O)(=O)c2cccc(Cl)c2)C1 [Compound 15, (R)-1-((3-chlorophenyl)sulfonyl)-N-((1-ethylpyrrolidin-3-yl)methyl)-1H-pyrrolo[3,2-c]quinolin-4-amine hydrochloride]
Ki (human 5-HT6R [1]): 38 nM

CC(C)CN1CCC[C@H]1CNc1nc2ccccc2c2c1ccn2S(=O)(=O)c1cccc(Cl)c1 [Compound 18, (S)-1-((3-chlorophenyl)sulfonyl)-N-((1-isobutylpyrrolidin-2-yl)methyl)-1H-pyrrolo[3,2-c]quinolin-4-amine hydrochloride]
Ki (human 5-HT6R [1]): 65 nM

COCCCN1CCC[C@@H]1CNc1nc2ccccc2c2c1ccn2S(=O)(=O)c1cccc(Cl)c1 [Compound 21, (R)-1-((3-chlorophenyl)sulfonyl)-N-((1-(3-methoxypropyl)pyrrolidin-2-yl)methyl)-1H-pyrrolo[3,2-c]quinolin-4-amine]
Ki (human 5-HT6R [1]): 87 nM

CCN1CCC[C@H]1CNc1nc2ccccc2c2c1ccn2S(=O)(=O)c1cccc(Cl)c1 [Compound 14, (S)-1-((3-chlorophenyl)sulfonyl)-N-((1-ethylpyrrolidin-2-yl)methyl)-1H-pyrrolo[3,2-c]quinolin-4-amine hydrochloride]
Ki (human 5-HT6R [1]): 72 nM

CCN1CCC[C@@H]1CNc1nc2ccccc2c2c1ccn2S(=O)(=O)c1cccc(Cl)c1.Cl [Compound 13, (R)-1-((3-chlorophenyl)sulfonyl)-N-((1-ethylpyrrolidin-2-yl)methyl)-1H-pyrrolo[3,2-c]quinolin-4-amine hydrochloride]
inhibition at 1 µM (human D3R [4]): 58% | Ki (human 5-HT6R [1]): 27 nM | Kb (human serotonin 5-HT6R): 1.2 nM | Impact on 5-HT6R-operated Gs signaling (constitutive activity) (human 5-HT6R [5]): neutral antagonist
